Measurements: patent US9850247B2 (Almac Discovery Limited, priority 2013, dated 2017)

What was measured:
[1] = system: phospho-cdc2 (Tyr15) in HT-29 cells; test: Effect on Cdc2 phosphorylation at Tyr15, Cell-Based ELISA Base Kit (Method 3); conditions: Homo sapiens, HT-29, 8 h, eight hours incubation, normalized to total cdc2, read-out: HT29 pCDC2 method 3
Method in brief: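 HT-29 cells were treated with compounds for 8 h at 37 °C, then fixed in 4% formaldehyde. Phospho-cdc2 (Tyr15) and total cdc2 were read by dual-fluorogenic cell-based ELISA at 600/450 nm. Phospho signal was normalized to total cdc2 and expressed as % of DMSO control, and EC50 came from non-linear regression.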

[2] = CLint estimates using human liver microsomes (Method 4); format: in vitro ADME; conditions: pH 7.4, 1 μM compound, read-out: Mics - CLint (HLM CLint)
Method in brief: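 Depletion measured by LC/MS/MS in MRM mode over 2–50 min after starting reactions with 1 mM NADPH. Incubations used 0.5 mg/mL human liver microsomal protein, 1 μM compound, 0.1% DMSO, pH 7.4 phosphate buffer, 37 °C. ln peak area plotted against time; the gradient gave t½ and intrinsic clearance.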

[3] = target: T1, human ether a go-go related gene (hERG) K′ channel (Homo sapiens, UniProt Q12809); test: hERG activity, IonWorks patch clamp electrophysiology (Method 6); format: cell-based
T1 construct: Essen BioScience
T1 sequence (Q12809 whole entry): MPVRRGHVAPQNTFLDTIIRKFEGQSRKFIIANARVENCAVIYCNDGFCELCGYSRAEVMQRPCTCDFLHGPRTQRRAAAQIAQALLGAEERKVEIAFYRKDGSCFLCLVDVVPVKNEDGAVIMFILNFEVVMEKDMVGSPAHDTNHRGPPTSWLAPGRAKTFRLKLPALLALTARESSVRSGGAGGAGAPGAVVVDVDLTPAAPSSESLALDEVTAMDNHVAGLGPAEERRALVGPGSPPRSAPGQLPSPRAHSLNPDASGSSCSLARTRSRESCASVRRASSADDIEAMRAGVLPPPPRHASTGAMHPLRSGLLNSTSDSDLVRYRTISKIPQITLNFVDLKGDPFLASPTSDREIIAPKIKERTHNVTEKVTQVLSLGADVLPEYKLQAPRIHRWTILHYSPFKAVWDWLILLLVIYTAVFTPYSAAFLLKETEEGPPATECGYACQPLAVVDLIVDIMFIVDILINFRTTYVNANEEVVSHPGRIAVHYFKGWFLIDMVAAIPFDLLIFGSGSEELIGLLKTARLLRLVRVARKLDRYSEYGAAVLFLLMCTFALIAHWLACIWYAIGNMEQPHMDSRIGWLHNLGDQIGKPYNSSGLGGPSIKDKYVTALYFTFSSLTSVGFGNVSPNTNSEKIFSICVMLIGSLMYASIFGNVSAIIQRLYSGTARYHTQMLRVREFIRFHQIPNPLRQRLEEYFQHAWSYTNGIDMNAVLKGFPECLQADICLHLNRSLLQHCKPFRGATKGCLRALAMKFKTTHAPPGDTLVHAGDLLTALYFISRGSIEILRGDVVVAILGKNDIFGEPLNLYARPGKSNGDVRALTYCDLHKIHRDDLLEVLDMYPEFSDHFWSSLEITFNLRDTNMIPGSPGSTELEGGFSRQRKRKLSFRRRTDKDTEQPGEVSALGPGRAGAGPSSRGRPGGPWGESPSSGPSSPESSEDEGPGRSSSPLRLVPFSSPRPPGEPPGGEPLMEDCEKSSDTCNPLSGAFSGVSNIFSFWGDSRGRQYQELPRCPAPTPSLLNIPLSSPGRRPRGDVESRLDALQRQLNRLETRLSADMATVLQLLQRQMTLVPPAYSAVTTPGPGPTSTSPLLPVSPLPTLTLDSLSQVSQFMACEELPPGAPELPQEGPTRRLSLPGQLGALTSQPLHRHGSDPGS
Method: Method 6: Determination of hERG Activity
Compounds were tested for inhibition of the human ether a go-go related gene (hERG) K′ channel using IonWorks patch clamp electrophysiology at Essen BioScience. 8-Point concentration-response curves of the effect of compound on hERG current as a percentage of pre-compound signal were generated using 3-fold serial dilutions from 11 μM and results are reported as IC50 in μM.

In the case of C[C@@H]1CN(c2ccc(Nc3ncc4c(n3)N(C)CN(c3c(Cl)cccc3Cl)C4=O)cc2)CCN1 [Example 16, (R)-3-(2,6-Dichlorophenyl)-1-methyl-7-((4-(3-methylpiperazin-1-yl)phenyl)amino)-2,3-dihydropyrimido[4,5-d]pyrimidin-4(1H)-one], the EC50 [1] is reported as 100 to 1000 nM, the microsomal CLint at 1 μM [2] is reported as ≤ 15 µL/min/mg and the IC50 [3] is reported as > 10000 nM.
